In this experiment the test system is pZeoLacZ plasmid DNA.

Method: Each dialysis device was rotated on a 12 inch motorized wheel overnight (approximately 20 hours). The DNA-containing chamber was then withdrawn with repeated pipetting to mix the sample, and it was placed in a 250 μl volume cuvette. The absorbance at 400 nm was used to monitor turbidity against the buffer background.

As for `NCCCNCCCCNCCCN` [spermine], the “total spermine concentration sufficient to condense the DNA” value (in the presence of the amount of N-C12-DOPE used) is 0.85 mM. For the setting “initial 250 μl emulsion, without N-C12-DOPE”, the “spermine concentration sufficient to condense the plasmid DNA” value was “approximately 0.6 mM”.

These data come from patent US7491409B1, “Encapsulation of bioactive complexes in liposomes” (Transave, Inc., priority 1999, dated 2009).
